Source: the supplement of paper PMC10307832

Columns and labels:
Assay in all cases: relative viability (nuclei count vs DMSO), 5 days (fraction); higher = more cells survive
Venetoclax + Tozasertib = compound: CC1(C)CCC(CN2CCN(c3ccc(C(=O)NS(=O)(=O)c4ccc(NCC5CCOCC5)c([N+](=O)[O-])c4)c(Oc4cnc5[nH]ccc5c4)c3)CC2)=C(c2ccc(Cl)cc2)C1 [Venetoclax] + Cc1cc(Nc2cc(N3CCN(C)CC3)nc(Sc3ccc(NC(=O)C4CC4)cc3)n2)n[nH]1 [Tozasertib] (partner 0.1 µM)
Summary of the method: (§1)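 Relative viability divides the nuclei count in treated wells by that in vehicle wells. Lung cancer cell lines were seeded in 1536-well plates, dosed by pin tool the next day, and fixed and stained after 5 days in one step with final 0.05% Triton X-100, 1% formaldehyde and 1 ug/ml Hoechst. Dosing was a single drug or a fixed anchor-drug dose plus five library-drug doses (not always all listed) in √10 steps, and values are medians of duplicate plates imaged at 4×.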

Selumetinib + Navitoclax = compound: Cn1cnc2c(F)c(Nc3ccc(Br)cc3Cl)c(C(=O)NOCCO)cc21 [Selumetinib] + CC1(C)CCC(c2ccc(Cl)cc2)=C(CN2CCN(c3ccc(C(=O)NS(=O)(=O)c4ccc(N[C@H](CCN5CCOCC5)CSc5ccccc5)c(S(=O)(=O)C(F)(F)F)c4)cc3)CC2)C1 [Navitoclax] (partner 0.5 µM)
Summary of the method: as §1

Selumetinib + Pemetrexed = compound: Cn1cnc2c(F)c(Nc3ccc(Br)cc3Cl)c(C(=O)NOCCO)cc21 [Selumetinib] + Nc1nc2[nH]cc(CCc3ccc(C(=O)N[C@@H](CCC(=O)O)C(=O)O)cc3)c2c(=O)[nH]1 [Pemetrexed] (partner 0.2 µM)
Summary of the method: as §1

Selumetinib + Crizotinib = compound: Cn1cnc2c(F)c(Nc3ccc(Br)cc3Cl)c(C(=O)NOCCO)cc21 [Selumetinib] + C[C@@H](Oc1cc(-c2cnn(C3CCNCC3)c2)cnc1N)c1c(Cl)ccc(F)c1Cl [Crizotinib] (partner 1 µM)
Summary of the method: as §1

| Cell Line | relative viability (Venetoclax + Tozasertib; first compound 0.01 µM) | relative viability (Venetoclax + Tozasertib; first compound 0.03162 µM) | relative viability (Venetoclax + Tozasertib; first compound 0.1 µM) | relative viability (Venetoclax + Tozasertib; first compound 0.3162 µM) | relative viability (Venetoclax + Tozasertib; first compound 1 µM) | relative viability (Selumetinib + Navitoclax; first compound 0.02 µM) | relative viability (Selumetinib + Navitoclax; first compound 0.06325 µM) | relative viability (Selumetinib + Navitoclax; first compound 0.2 µM) | relative viability (Selumetinib + Navitoclax; first compound 0.6325 µM) | relative viability (Selumetinib + Pemetrexed; first compound 0.02 µM) | relative viability (Selumetinib + Pemetrexed; first compound 0.06325 µM) | relative viability (Selumetinib + Pemetrexed; first compound 0.2 µM) | relative viability (Selumetinib + Pemetrexed; first compound 0.6325 µM) | relative viability (Selumetinib + Crizotinib; first compound 0.02 µM) | relative viability (Selumetinib + Crizotinib; first compound 0.06325 µM) | relative viability (Selumetinib + Crizotinib; first compound 0.2 µM) | relative viability (Selumetinib + Crizotinib; first compound 0.6325 µM) |
| --- | --- | --- | --- | --- | --- | --- | --- | --- | --- | --- | --- | --- | --- | --- | --- | --- | --- |
| NCI-H2170 | 0.723 | 0.68 | 0.592 | 0.646 | 0.632 | 0.581 | 0.561 | 0.514 | 0.464 | 0.236 | 0.266 | 0.254 | 0.265 | 1.17 | 1.11 | 1.03 | 1.15 |
| NCI-H2126 | 0.822 | 0.791 | 0.867 | 0.86 | 0.759 | 0.789 | 0.764 | 0.75 | 0.59 | 0.627 | 0.612 | 0.684 | 0.568 | 1.01 | 1 | 0.913 | 0.887 |
| EPLC-272H | 0.339 | 0.391 | 0.311 | 0.452 | 0.336 | 0.791 | 0.942 | 0.76 | 0.843 | 0.317 | 0.375 | 0.326 | 0.34 | 0.877 | 0.846 | 0.707 | 0.731 |
| PC-14 | 0.646 | 0.601 | 0.576 | 0.553 | 0.531 | 1.02 | 1.03 | 0.957 | 0.949 | 0.123 | 0.114 | 0.107 | 0.127 | 0.867 | 0.814 | 0.961 | 0.949 |
| NCI-H520 | 0.413 | 0.406 | 0.434 | 0.443 | 0.403 | 1.08 | 1.1 | 1.12 | 1.07 | 0.654 | 0.754 | 0.752 | 0.731 | 0.791 | 0.766 | 0.764 | 0.809 |
| LXF-289 | 0.217 | 0.218 | 0.187 | 0.216 | 0.213 | 0.913 | 0.894 | 0.754 | 0.754 | 0.865 | 0.848 | 0.763 | 0.808 | 0.872 | 0.7 | 0.664 | 0.616 |
| NCI-H441 | 0.587 | 0.603 | 0.86 | 0.676 | 0.507 | 0.959 | 0.574 | 0.839 | 0.546 | 0.283 | 0.248 | 0.275 | 0.308 | 0.724 | 0.858 | 0.78 | 0.556 |
| NCI-H596 | 1.05 | 0.74 | 0.966 | 0.862 | 0.847 | 0.906 | 0.845 | 0.677 | 0.415 | 0.485 | 0.576 | 0.426 | 0.494 | 0.966 | 0.875 | 0.845 | 0.599 |
| NCI-H838 | 0.254 | 0.246 | 0.303 | 0.238 | 0.239 | 1.01 | 0.965 | 0.963 | 0.88 | 0.234 | 0.214 | 0.233 | 0.242 | 0.783 | 0.689 | 0.634 | 0.601 |
